# Measurements from PMC6130654 (Pharmaceutical Biology, 2016).
# Key:
# P-gp = P-gp expression levels in small intestine by western blot analysis; format: in vivo, ICR mice; conditions: mouse small intestine, intragastric, seven days; for P-gp expression compared with negative control: normalized to Na+-K+-ATPase
# Method: Healthy male ICR mice (18-22 g of body weight) were purchased from SPF Animal Centre of […] Medical University ([…], China). […] The drugs were administrated intragastrically for seven consecutive days. Membrane proteins were harvested by […] Membrane and Plasma Protein Purification Kit ([…], Nanjing, China), and the protein concentrations were determined using KeyGEN BCA Protein Quantitation Assay kit ([…], Nanjing, China). An equal quantity of protein (48 μg) from membrane protein was resolved using 7.5% SDS-PAGE gel and subsequently transferred onto nitrocellulose membranes (Bio-Trace, Auckland, New Zealand). […] Antibodies were both purchased from Abcam (Cambridge, United Kingdom). The membranes were incubated with horseradish peroxidase-conjugated AffiniPure Goat Anti-Rabbit IgG (ZSGB-BIO, Beijing, China) for 1 h and signals were observed using SuperSignal West Pico (Thermo Scientific, Waltham, MA). Western blotting bands intensity was quantified by densitometric analysis using Image J version 2 × (NIH Image Software, […]).
# MDR1 mRNA = assay: MDR1 expression in small intestine determined by RT-qPCR; conditions: mouse small intestine; intragastric, seven days; verapamil 40 mg/kg, ART-verapamil 1:1, ART-CHR all ratios, CHR alone 80 mg/kg; p < 0.01
# Method: All animals were housed in polycarbonate cages and acclimated in an environmentally controlled room (23 ± 2 °C, with adequate ventilation and a 12 h light/dark cycle) prior to use. All animals were provided with standard laboratory food and water before and during the experiments. […] The drugs were administrated intragastrically for seven consecutive days.
# The mice were euthanized by cervical vertebra dislocation. Small intestines were harvested and cleaned using normal saline at least three times. Total RNA was extracted from the mouse small intestine using E.Z.N.A.^TM Total RNA Kit (OMEGA Bio-Tek, Norcross, GA), in accordance with the instructions of the manufacturer. RNA concentrations were measured with a microplate spectrophotometer (Bio-RAD, Hercules, CA) at 260 nm. RNA quality was evaluated using electrophoresis in 1% agarose gels. Total RNA (3 μg) was reverse transcribed into first-strand complementary DNA (cDNA) using Thermo Scientific RevertAid First Strand cDNA Synthesis Kit (Thermo Scientific, Waltham, MA). Each cDNA sample (1 μL) was amplified with 12 μL Thermo Scientific Maxima SYBR Green qPCR Master Mix (2×). ROX Solution provided (Thermo Scientific, Waltham, MA) and 1 μmol of each primer. […]
# [1] = ref Wei et al. [2015]; cited from earlier work
# Plasmodium berghei = tested on: Plasmodium berghei; design: method as in Wei et al. [2015]; conditions: ref Wei et al. [2015]; cited from earlier work
# [2] = tested on: ABC transporter coupling ATPase; assay: ABC transporter-related ATPase activity assay on small intestine membrane proteins; format: in vivo, mice; conditions: mouse small intestine, intragastric, seven days, p < 0.05
# Text: Healthy male ICR mice (18-22 g of body weight) were purchased from SPF Animal Centre of […] Medical University ([…], China). […] The drugs were administrated intragastrically for seven consecutive days.
# rat CYP3A = conditions: ref Wei et al. [2015]; cited from earlier work
Compound,"P-gp expression levels compared with ART alone (P-gp; ART-verapamil (1:1), ART-CHR (1:0.1, 1:1, 1:2, 1:4), CHR alone, p < 0.05 and p < 0.01)",P-gp expression compared with negative control (P-gp),MDR1 mRNA expression compared with ART alone (MDR1 mRNA),effect of CHR on rat plasma concentration of ART [1],effect of CHR on anti-malarial efficacy of ART (Plasmodium berghei),"ATPase activity compared with ART alone ([2]; ART-CHR 1:4 (40:160 mg/kg), CHR alone 80 mg/kg)",manner of inhibition of rat CYP3A (rat CYP3A),"ATPase activity versus the vehicle ([2]; ART 40 mg/kg, verapamil 40 mg/kg)"
"COc1cc(-c2oc3cc(OC)c(OC)c(O)c3c(=O)c2OC)ccc1O [CHR, Chrysosplenetin]",significantly decreased,No significant difference,reversed to normal levels,significantly increased,significantly increased,slight increase,uncompetitive,
"C[C@@H]1CC[C@H]2[C@@H](C)C(=O)O[C@@H]3O[C@@]4(C)CC[C@@H]1[C@]32OO4 [ART, artemisinin, reference compound]",,up-regulated,,,,,,remarkably decreased
